Assay results taken from patent US7465744B2, “Triazole compounds and the therapeutic use thereof” (Abbott GmbH & Co. KG, priority 2003, dated 2008).
pKi: −log10 of the molar value. Where a name gives a salt, the structure may show the parent alone.

Legend:
[1] = target: T1, human dopamine D3 receptors (Homo sapiens, UniProt P35462); assay: Receptor binding study, dopamine D3 receptor ([125I]-iodosulpride displacement); settings: membranes from HEK-293 cells, 0.1 nM [125I]-iodosulpride
T1 construct: expressed in transfected cells
T1 sequence (P35462 whole entry): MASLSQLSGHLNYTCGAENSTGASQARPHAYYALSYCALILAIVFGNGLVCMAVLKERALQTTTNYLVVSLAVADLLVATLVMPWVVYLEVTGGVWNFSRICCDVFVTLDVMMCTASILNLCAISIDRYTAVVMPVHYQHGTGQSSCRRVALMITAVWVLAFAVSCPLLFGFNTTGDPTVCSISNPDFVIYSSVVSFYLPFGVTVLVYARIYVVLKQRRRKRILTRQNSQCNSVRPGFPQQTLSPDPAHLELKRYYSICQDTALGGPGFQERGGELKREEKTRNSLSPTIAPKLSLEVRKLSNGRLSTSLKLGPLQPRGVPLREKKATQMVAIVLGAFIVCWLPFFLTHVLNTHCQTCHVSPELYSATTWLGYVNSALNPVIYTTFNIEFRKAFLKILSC
Method: (§1) The substance to be tested was dissolved either in methanol/Chremophor® (BASF-AG) or in dimethyl sulfoxide and then diluted with water to the desired concentration.
(§2) The mixture (0.250 ml) is composed of membranes from ˜10^6 HEK-293 cells with stably expressed human dopamine D3 receptors, 0.1 nM [^125I]-iodosulpride and incubation buffer (total binding) or with addition of test substance (inhibition plot) or 1 μM spiperone (nonspecific binding). Triplicate mixtures were carried out.
The incubation buffer contained 50 mM Tris, 120 mM NaCl, 5 mM KCl, 2 mM CaCl2, 2 mM MgCl2 and 0.1% bovine serum albumin, 10 μM quinolone, 0.1% ascorbic acid (prepared fresh each day). The buffer was adjusted to pH 7.4 with HCl.
(§3) After incubation at 25° C. for 60 minutes, the mixtures were filtered under vacuum through Wathman GF/B glass fiber filters using a cell harvester. The filters were transferred by a filter transfer system into scintillation vials. After addition of 4 ml of Ultima Gold® (Packard), the samples were shaken for one hour and then the radioactivity was calculated in a beta counter (Packard, Tricarb 2000 or 2200CA). The cp values were converted into dpm by means of a standard quench series with the aid of the instrument's own program.
(§4) Evaluation of the inhibition plots took place by iterative nonlinear regression analysis using the statistical analysis system (SAS) similar to the “LIGAND” program described by Munson and Rodbard.

[2] = target: T2, human dopamine D2 (L) receptors (long isoform) (Homo sapiens, UniProt P14416); assay: Receptor binding study, dopamine D2(L) receptor ([125I]-iodospiperone displacement); settings: selectivity ratio D2(L) versus D3 binding
T2 construct: expressed in transfected cells
T2 sequence (P14416 whole entry, canonical isoform): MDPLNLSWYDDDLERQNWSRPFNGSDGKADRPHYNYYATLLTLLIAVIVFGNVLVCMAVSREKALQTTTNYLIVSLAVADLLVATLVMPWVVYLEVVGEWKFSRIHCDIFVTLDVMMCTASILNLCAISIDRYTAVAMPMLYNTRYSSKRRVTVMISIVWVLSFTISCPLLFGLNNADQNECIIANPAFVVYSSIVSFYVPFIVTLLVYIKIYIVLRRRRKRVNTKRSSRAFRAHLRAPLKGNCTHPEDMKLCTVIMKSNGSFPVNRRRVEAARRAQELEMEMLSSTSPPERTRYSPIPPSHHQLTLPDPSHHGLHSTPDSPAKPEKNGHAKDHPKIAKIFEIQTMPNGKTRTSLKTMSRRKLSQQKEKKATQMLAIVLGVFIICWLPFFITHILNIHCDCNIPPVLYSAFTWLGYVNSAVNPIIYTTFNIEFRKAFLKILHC
Method: as §1
as §2, with “(1” for “(0.250”, “was” for “is”, “D2 (L) receptors (long isoform) and 0.01” for “D3 receptors, 0.1”, “[^125I]-iodospiperone” for “[^125I]-iodosulpride”, “haloperidol” for “spiperone”
The incubation buffer contained 50 mM Tris, 120 mM NaCl, 5 mM KCl, 2 mM CaCl2, 2 mM MgCl2 and 0.1% bovine serum albumin. The buffer was adjusted to pH 7.4 with HCl.
as §3, §4

[3] = Investigation of the cerebral availability and the oral bioavailability; assay type: in vivo, male Wistar rats; settings: rat; for bioavailability / Kp: male, Wistar; for bioavailability: plasma, AUCoral/AUCiv, oral 10 mg/kg, intravenous 2 mg/kg, read-out: F (bioavailability); for Kp: brain/plasma, oral, 10 mg/kg of body weight, read-out: AUCbrain/AUCplasma; for cmax (brain) / AUCbrain: oral (gavage) 10 mg/kg, brain tissue; for AUCbrain: trapezoidal method
Method: The test substances were administered to male Wistar rats in parallel experiments in each case intravenously (tail vein, 2 mg/kg of body weight) and orally (gavage, 10 mg/kg of body weight). The test compound was dissolved in water with up to 4% by volume of DMSO and/or ethanol for intravenous administration and suspended in 4% by weight aqueous hydroxypropyl-cellulose solution for oral administration. After various times (intravenous: 5 min, 15 min, 30 min, 2 h, 8 h and 24 h; oral: 15 min, 30 min, 2 h, 8 h and 24 h) after the administration, a blood sample or brain tissue were taken from 2 rats in each case. The concentration of the test compound in the blood plasma and in the brain tissue (plasma and brain) was determined in a conventional way by coupled liquid chromatography/mass spectroscopy or by HPLC. The area under the concentration-time plot for brain (AUCbrain) and for plasma (AUCiV, AUCoral) were by means of the trapezoidal method from the results obtained [((tn−tn-1)×(cn+cn-1)/2) calculated, in which tn is the time of determination and tn-1 is the preceding time of determination, and cn and cn-1 are respectively the concentrations at time tn and tn-1]. The maximum concentration of the active ingredients in brain tissue cmax brain, the value of AUCbrain, and the AUCbrain/AUCplasma ratio is a measure of the cerebral availability of the active substance. In addition, the bioavailability F of the active ingredient was calculated in a manner known per se from the data (AUCoral/AUCiv in %).

| Compound | pKi [1] | Ki (D2)/Ki (D3) [2] | also measured |
| --- | --- | --- | --- |
| CCC(=O)c1ccc2c(c1)CN(CCCSc1nnc(-c3ccccc3)n1C)CC2 [Ia′-25, 2-{3-[(4-methyl-5-phenyl-4H-1,2,4-triazol-3-yl)thio]propyl}-7-propionyl-1,2,3,4-tetrahydroisoquinoline] | 8.36 | 90 | – |
| CC(=O)c1ccc2c(c1)CN(CCCSc1nnc(-c3cccn3C)n1C)CC2 [Ia′-4, 7-Acetyl-2-(3-{[4-methyl-5-(1-methyl-1H-pyrrol-2-yl)-4H-1,2,4-triazol-3-yl]thio}propyl)-1,2,3,4-tetrahydroisoquinoline] | 8.35 | 80 | – |
| CCC(=O)c1ccc2c(c1)CN(CCCSc1nnc(-c3cc4ccccc4s3)n1C)CC2 [Ia′-57, 1-[2-(3-{[5-(1-Benzothien-2-yl)-4-methyl-4H-1,2,4-triazol-3-yl]thio}propyl)-1,2,3,4-tetrahydroisoquinolin-7-yl]propan-1-one] | 8.59 | 59 | – |
| Cn1cccc1-c1nnc(SCCCN2CCc3ccc(C(=O)c4cccc(F)c4)cc3C2)n1C [Ia′-60, 7-(3-Fluorobenzoyl)-2-(3-{[4-methyl-5-(1-methyl-1H-pyrrol-2-yl)-4H-1,2,4-triazol-3-yl]thio}-propyl)-1,2,3,4-tetrahydroisoquinoline] | 7.52 | 37 | – |
| CCC(=O)c1ccc2c(c1)CN(CCCSc1nnc(-c3cccn3C)n1C)CC2 (as salt: hydrochloride) [Ia′-15, 2-(3-{[4-Methyl-5-(1-methyl-1H-pyrrol-2-yl)-4H-1,2,4-triazol-3-yl]thio}propyl)-7-propionyl-1,2,3,4-tetrahydroisoquinoline] | – | – | melting point: 181 to 184 °C |
| Cn1c(SCCCN2CCc3ccc(C(=O)c4ccccc4)cc3C2)nnc1-c1ccsc1 (as salt: hydrochloride) [Ia′-18, 7-Benzoyl-2-{3-[(4-methyl-5-thien-3-yl-4H-1,2,4-triazol-3-yl)thio]propyl}-1,2,3,4-tetrahydroisoquinoline] | – | – | melting point: 140 °C |
| Cn1c(SCCCN2CCc3ccc(C(=O)c4cccc(F)c4)cc3C2)nnc1-c1ccccc1 (as salt: hydrochloride) [Ia′-68, 7-(3-Fluorobenzoyl)-2-{3-[(4-methyl-5-phenyl-4H-1,2,4-triazol-3-yl)thio]propyl}-1,2,3,4-tetrahydroisoquinolines] | – | – | melting point: 147 °C |
| CC(=O)c1ccc2c(c1)CN(CCCSc1nnc(-c3cccnc3)n1C)CC2 [Ia′-39, 7-Acetyl-2-{3-[(4-methyl-5-pyridin-3-yl-4H-1,2,4-triazol-3-yl)thio]propyl}-1,2,3,4-tetrahydroisoquinolines] | 7.73 | 37 | – |
| Cn1c(SCCCN2CCc3ccc(C(=O)c4ccccc4)cc3C2)nnc1-c1ccsc1 [Ia′-18, 7-Benzoyl-2-{3-[(4-methyl-5-thien-3-yl-4H-1,2,4-triazol-3-yl)thio]propyl}-1,2,3,4-tetrahydroisoquinoline] | 7.65 | 48 | – |
| Cn1c(SCCCN2CCc3ccc(C(=O)c4cccc(F)c4)cc3C2)nnc1-c1cccnc1 [Ia′-63, 7-(3-Fluorobenzoyl)-2-{3-[(4-methyl-5-pyridin-3-yl-4H-1,2,4-triazol-3-yl)thio]propyl}-1,2,3,4-tetrahydroisoquinolines] | 7.39 | 38 | – |
| CCC(=O)c1ccc2c(c1)CN(CCCSc1nnc(-c3ccc[nH]3)n1C)C2.Cl [Ib′-65, 1-[2-(3-{[4-Methyl-5-(1H-pyrrol-2-yl)-4H-1,2,4-triazol-3-yl]thio}propyl)-2,3-dihydro-1H-isoindol-5-yl]propan-1-one hydrochloride] | 7.40 | 49 | – |
| Cn1c(SCCCN2CCc3ccc(C(=O)c4ccccc4)cc3C2)nnc1-c1ccco1 [Ia′-3, 7-Benzoyl-2-(3-{[5-(2-furyl)-4-methyl-4H-1,2,4-triazol-3-yl]thio}propyl)-1,2,3,4-tetrahydroisoquinoline] | 7.71 | 40 | – |

Further compounds by rising pKi [1], results first:

| pKi [1] | Ki (D2)/Ki (D3) [2] | Compound | also measured |
| --- | --- | --- | --- |
| 7.59 | 39 | Cn1c(SCCCN2CCc3ccc(C(=O)c4cccc(F)c4)cc3C2)nnc1-c1cnccn1 [Ia′-58, 7-(3-Fluorobenzoyl)-2-{3-[(4-methyl-5-pyrazin-2-yl-4H-1,2,4-triazol-3-yl)thio]propyl}-1,2,3,4-tetrahydroisoquinoline] | – |
| 7.67 | 126 | CCC(=O)c1ccc2c(c1)CN(CCCSc1nnc(-c3ccccc3)n1C)C2.Cl [Ib′-25, 1-(2-{3-[(4-Methyl-5-phenyl-4H-1,2,4-triazol-3-yl)thio]propyl}-2,3-dihydro-1H-isoindol-5-yl)propan-1-one hydrochloride] | – |
| 7.83 | 56 | Cn1c(SCCCN2CCc3ccc(C(=O)c4cccc(F)c4)cc3C2)nnc1-c1ccccc1 [Ia′-68, 7-(3-Fluorobenzoyl)-2-{3-[(4-methyl-5-phenyl-4H-1,2,4-triazol-3-yl)thio]propyl}-1,2,3,4-tetrahydroisoquinolines] | – |
| 7.94 | 133 | Cn1c(SCCCN2CCc3ccc(C(=O)c4ccccc4)cc3C2)nnc1-c1ccncc1 [Ia′-1, 7-Benzoyl-2-{3-[(4-methyl-5-pyridin-4-yl-4H-1,2,4-triazol-3-yl)thio]propyl}-1,2,3,4-tetrahydroisoquinoline] | – |
| 7.97 | 90 | Cn1cccc1-c1nnc(SCCCN2CCc3ccc(C(=O)c4ccccc4)cc3C2)n1C [Ia′-12, 7-Benzoyl-2-(3-{[4-methyl-5-(1-methyl-1H-pyrrol-2-yl)-4H-1,2,4-triazol-3-yl]thio}propyl)-1,2,3,4-tetrahydroisoquinoline] | bioavailability [3]: 10%; Kp [3]: 0.2; cmax (brain) [3]: 130 ng/g; AUCbrain [3]: 306 ng·h/g |
| 8.07 | 149 | Cn1c(SCCCN2CCc3ccc(C(=O)c4ccccc4)cc3C2)nnc1-c1ccccc1 [Ia′-19, 7-Benzoyl-2-{3-[(4-methyl-5-phenyl-4H-1,2,4-triazol-3-yl)thio]propyl}-1,2,3,4-tetrahydroisoquinolines] | – |
| 8.36 | 103 | CCC(=O)c1ccc2c(c1)CN(CCCSc1nnc(-c3cccn3C)n1C)CC2 [Ia′-15, 2-(3-{[4-Methyl-5-(1-methyl-1H-pyrrol-2-yl)-4H-1,2,4-triazol-3-yl]thio}propyl)-7-propionyl-1,2,3,4-tetrahydroisoquinoline] | bioavailability [3]: 100%; Kp [3]: 0.3; cmax (brain) [3]: 686 ng/g; AUCbrain [3]: 2903 ng·h/g |
